Measured values taken from BindingDB's records for doi:10.1021/acs.jmedchem.3c00203 (University of Oxford, 2023).

What was measured:
[1] = biological target: T1, Isocitrate dehydrogenase [NADP] cytoplasmic (Homo sapiens, UniProt O75874); assay: Binding affinity to human recombinant IDH1 expressed in Escherichia coli BL21(DE3) pLysS cells assessed as dissociation constant by non-denaturing mass spectroscopic analysis
Target sequence in this assay (O75874 whole entry): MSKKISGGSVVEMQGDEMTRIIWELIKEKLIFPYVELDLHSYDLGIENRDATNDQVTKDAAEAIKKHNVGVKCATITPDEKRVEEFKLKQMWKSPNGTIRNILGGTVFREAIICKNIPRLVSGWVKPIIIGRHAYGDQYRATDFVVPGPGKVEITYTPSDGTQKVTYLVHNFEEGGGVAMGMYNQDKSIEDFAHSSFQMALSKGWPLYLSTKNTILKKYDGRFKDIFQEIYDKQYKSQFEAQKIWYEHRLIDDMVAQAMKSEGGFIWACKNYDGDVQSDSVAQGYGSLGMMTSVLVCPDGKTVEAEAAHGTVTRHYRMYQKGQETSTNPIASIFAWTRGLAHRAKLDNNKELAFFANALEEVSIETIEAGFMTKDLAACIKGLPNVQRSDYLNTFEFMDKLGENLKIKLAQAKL

[2] = biological target: T1, Isocitrate dehydrogenase [NADP] cytoplasmic; assay: Binding affinity to recombinant IDH1 R132H mutant (unknown origin) expressed in Escherichia coli BL21(DE3) pLysS cells assessed as dissociation constant by ITC assay
Target sequence in this assay (O75874 2-414 R132H limits assumed): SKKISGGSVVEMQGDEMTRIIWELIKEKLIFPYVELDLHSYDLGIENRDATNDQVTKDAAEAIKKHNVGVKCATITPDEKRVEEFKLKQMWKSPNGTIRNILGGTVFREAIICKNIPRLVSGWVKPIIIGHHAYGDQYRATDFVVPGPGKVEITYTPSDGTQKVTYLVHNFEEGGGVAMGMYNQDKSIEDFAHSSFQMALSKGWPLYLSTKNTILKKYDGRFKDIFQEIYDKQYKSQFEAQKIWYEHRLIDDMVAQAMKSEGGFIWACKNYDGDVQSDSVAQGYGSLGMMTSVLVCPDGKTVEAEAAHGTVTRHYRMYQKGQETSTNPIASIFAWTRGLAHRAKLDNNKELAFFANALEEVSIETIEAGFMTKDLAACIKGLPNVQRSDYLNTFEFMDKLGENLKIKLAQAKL

[3] = biological target: T1, Isocitrate dehydrogenase [NADP] cytoplasmic; assay: Inhibition of recombinant wildtype IDH1 (unknown origin) expressed in Escherichia coli BL21(DE3) pLysS cells using DL-isocitrste as substrate assessed as DL-isocitrate conversion to 2OG incubated for 60 mins in presence of NADPH by spectrophotometric analysis
Target sequence in this assay (O75874 whole entry): as the sequence (O75874 whole entry) above

[4] = biological target: T1, Isocitrate dehydrogenase [NADP] cytoplasmic; assay: Inhibition of recombinant IDH1 R132H mutant (unknown origin) expressed in Escherichia coli BL21(DE3) pLysS cells using 2OG as substrate assessed as 2OG conversion to 2HG incubated for 60 mins in presence of NADPH by spectrophotometric analysis
Target sequence in this assay (O75874 2-414 R132H limits assumed): as the sequence (O75874 2-414 R132H limits assumed) above

[5] = biological target: T1, Isocitrate dehydrogenase [NADP] cytoplasmic; assay: Binding affinity to recombinant IDH1 R132H mutant (unknown origin) expressed in Escherichia coli BL21(DE3) pLysS cells assessed as dissociation constant by NMR analysis
Target sequence in this assay (O75874 2-414 R132H limits assumed): as above

[6] = biological target: T1, Isocitrate dehydrogenase [NADP] cytoplasmic; assay: Binding affinity to recombinant wildtype IDH1 (unknown origin) expressed in Escherichia coli BL21(DE3) pLysS cells assessed as dissociation constant by ITC assay
Target sequence in this assay (O75874 whole entry): as the sequence (O75874 whole entry) above

[7] = biological target: T1, Isocitrate dehydrogenase [NADP] cytoplasmic; assay: Binding affinity to recombinant wildtype IDH1 (unknown origin) expressed in Escherichia coli BL21(DE3) pLysS cells assessed as dissociation constant by NMR analysis
Target sequence in this assay (O75874 whole entry): as above

[8] = biological target: T1, Isocitrate dehydrogenase [NADP] cytoplasmic; assay: Binding affinity to human recombinant IDH1 R132H mutant expressed in Escherichia coli BL21(DE3) pLysS cells assessed as dissociation constant by non-denaturing mass spectroscopic analysis
Target sequence in this assay (O75874 2-414 R132H limits assumed): as the sequence (O75874 2-414 R132H limits assumed) above

Kd [1]: 140 µM | Kd [2]: > 400 µM | IC50 [3]: 341 nM | IC50 [4]: 8.2 nM | Kd [5]: 1100 nM | Kd [6]: > 400 µM | Kd [7]: 1700 nM | Kd [8]: 142 µM
SMILES: CC(=O)N1CCN(Cc2ccc([C@H](C)Nc3nccc(N4C(=O)OC[C@@H]4C(C)C)n3)cc2)CC1 [US8957068, 556]
